The record followed here is ChEMBL document CHEMBL1132810, “Inhibition of vertebrate squalene epoxidase by isoprenyl gallates and phenylalkyl gallates” (Bioorg Med Chem Lett, 2000).

By IC50 is commonly meant the concentration at which inhibition is half-maximal.

This assay has as its target Squalene monooxygenase (Rattus norvegicus, UniProt P52020). The experiment in a line: Compound was evaluated for its inhibitory activity against recombinant rat SE(squalene epoxidase).

Chain of Squalene monooxygenase (P52020 whole entry): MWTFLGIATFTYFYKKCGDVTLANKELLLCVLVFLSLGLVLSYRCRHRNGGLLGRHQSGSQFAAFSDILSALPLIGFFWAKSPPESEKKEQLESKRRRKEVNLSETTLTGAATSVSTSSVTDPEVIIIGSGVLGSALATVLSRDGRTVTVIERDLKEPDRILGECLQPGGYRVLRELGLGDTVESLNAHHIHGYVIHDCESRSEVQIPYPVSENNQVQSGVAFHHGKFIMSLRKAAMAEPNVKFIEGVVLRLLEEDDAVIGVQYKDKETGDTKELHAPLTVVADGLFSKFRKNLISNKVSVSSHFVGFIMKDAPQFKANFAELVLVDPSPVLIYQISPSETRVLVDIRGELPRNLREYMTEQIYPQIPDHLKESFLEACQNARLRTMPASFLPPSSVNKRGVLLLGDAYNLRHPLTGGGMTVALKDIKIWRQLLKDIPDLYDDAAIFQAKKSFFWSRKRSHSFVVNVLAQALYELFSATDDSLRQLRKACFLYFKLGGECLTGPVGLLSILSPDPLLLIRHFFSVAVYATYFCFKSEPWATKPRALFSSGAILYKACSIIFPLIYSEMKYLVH

In the case of `O=C(OCCCCCCCCc1ccccc1)c1cc(O)c(O)c(O)c1`, the IC50 was found to be 12.5 µM.
Consider `CC(C)=CCC/C(C)=C/COC(=O)c1cc(O)c(O)c(O)c1` [Geranyl gallate], for which the IC50 stood at 12.5 µM.
The same measure for `CC(C)=CCC/C(C)=C/CC/C(C)=C/CC/C(C)=C/COC(=O)c1cc(O)c(O)c(O)c1`: 4.5 µM; for `CC(C)=CCC/C(C)=C/CC/C(C)=C/COC(=O)c1cc(O)c(O)c(O)c1`: 1.5 µM; for `O=C(OCCCCCCCCCCc1ccccc1)c1cc(O)c(O)c(O)c1`: 15.3 µM.
With `O=C(OCCCCCCc1ccccc1)c1cc(O)c(O)c(O)c1`, the IC50 was determined as 11.9 µM.
As to `CC(C)=CCC/C(C)=C/CC/C(C)=C/CC/C=C(\C)CC/C=C(\C)CCCOC(=O)c1cc(O)c(O)c(O)c1`, the IC50 stood at 5.1 µM.
Consider `O=C(O[C@@H]1Cc2c(O)cc(O)cc2O[C@@H]1c1cc(O)c(O)c(O)c1)c1cc(O)c(O)c(O)c1` [EPIGALOCATECHIN GALLATE], for which the IC50 is 0.69 µM.
For `O=C(OCCCCc1ccccc1)c1cc(O)c(O)c(O)c1`, the IC50 came out at 61.3 µM.
For the compound `CCCCCCCCCCCCOC(=O)c1cc(O)c(O)c(O)c1` [DODECYL GALLATE], the IC50 is 0.061 µM.
